Measurements: article PMC5843355, “Evaluation of the Trypanosoma brucei 6-oxopurine salvage pathway as a potential target for drug discovery” (PLoS Neglected Tropical Diseases, 2018)
Where “and” joins values, the source holds several entries; their conditions need not be identical. Equal entries are not always repeated. Where two headings read alike, the source gives them in different places.

Experiments:
HGPRT-II [1] = target: T1, HGPRT-II (Trypanosoma brucei brucei, UniProt Q38C93); test: Steady-state kinetic constants of 6-oxopurine bases for HGPRT-II; type: biochemical; conditions: PRib-PP 1 mM, pH 8.4, 25°C
Description: (§1) The concentration of enzyme in the assay (varied from 75–200 μg/ml for the two enzymes) and the concentration of PRib-PP was kept at 1 mM. The reaction was carried out using a 1.0 cm path length with a UV Visible spectrometer 1601 (Shimadzu) in the reaction buffer (0.1 M Tris, pH 8.4; 0.11 M MgCl2; at 25°C).

HGXPRT [2] = target: T2, HGXPRT (Trypanosoma brucei brucei, UniProt Q38CA1); test: Steady-state kinetic constants of 6-oxopurine bases for HGXPRT; conditions: PRib-PP 1 mM, pH 8.4, 25°C
Description: as §1

HGPRT-I [3] = target: T3, HGPRT-I (Trypanosoma brucei brucei, UniProt Q07010); test: Steady-state kinetic constants of 6-oxopurine bases for HGPRT-I; type: biochemical; conditions: PRib-PP 1 mM, pH 8.4, 25°C
T3 construct: 6x His-tag (N); AcTEV cleavage site (N); made in house; host or cells: E. coli One Shot BL21(DE3)
Description: as §1

HGPRT-I [4] = target: T3, HGPRT-I; test: Inhibition studies, Ki for recombinant HGPRT-I (spectrophotometric assay); type: biochemical; conditions: 0.1 M Tris pH 8.4, 0.11 M MgCl2, 25°C, parent ANP
Description: as §1
(§2) The concentrations of inhibitors in the assay ranged from 1 nM to 100 μM, depending on the steady-state kinetics of the respective enzyme at that concentration of inhibitor. The reaction was preceded by 1 minute incubation of the respective enzyme with the given inhibitor. The Ki values were calculated using non-linear regression in GraphPad Prism5.

HGPRT-II [5] = target: T1, HGPRT-II; test: Inhibition studies, Ki for recombinant HGPRT-II (spectrophotometric assay); type: biochemical
Description: as §1, §2

HGXPRT [6] = target: T2, HGXPRT; test: Inhibition studies, Ki for recombinant HGXPRT (spectrophotometric assay); type: biochemical; conditions: 0.1 M Tris pH 8.4, 0.11 M MgCl2, 25°C, parent ANP
Description: as §1, §2

[7] = 0.1 M Tris pH 8.4, 0.11 M MgCl2, 25°C, parent ANP

T2 sequence (Q38CA1 entry or part of it): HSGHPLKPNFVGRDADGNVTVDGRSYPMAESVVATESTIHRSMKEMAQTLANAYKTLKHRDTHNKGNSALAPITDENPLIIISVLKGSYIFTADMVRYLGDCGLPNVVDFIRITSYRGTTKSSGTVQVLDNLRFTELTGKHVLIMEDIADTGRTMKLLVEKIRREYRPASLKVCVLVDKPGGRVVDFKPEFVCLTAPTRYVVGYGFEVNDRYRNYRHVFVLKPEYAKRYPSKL
T1 sequence (Q38C93 entry or part of it): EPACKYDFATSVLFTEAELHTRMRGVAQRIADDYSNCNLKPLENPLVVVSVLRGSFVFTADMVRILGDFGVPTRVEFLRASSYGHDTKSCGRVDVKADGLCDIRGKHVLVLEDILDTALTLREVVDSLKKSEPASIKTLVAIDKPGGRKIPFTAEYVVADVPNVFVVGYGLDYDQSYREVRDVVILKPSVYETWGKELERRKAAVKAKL
T3 sequence (Q07010 2-210 limits assumed): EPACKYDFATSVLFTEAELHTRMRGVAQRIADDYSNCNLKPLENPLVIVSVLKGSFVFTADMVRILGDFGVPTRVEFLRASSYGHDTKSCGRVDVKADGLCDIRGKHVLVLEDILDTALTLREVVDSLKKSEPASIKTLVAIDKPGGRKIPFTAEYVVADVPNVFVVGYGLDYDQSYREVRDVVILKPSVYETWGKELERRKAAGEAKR

| Structure (SMILES) | Ki (HGPRT-I [4]; read-out: HGPRT-I Ki) | Ki (HGPRT-II [5]; [7]) | Ki (HGXPRT [6]; read-out: HGXPRT Ki) | further results |
| --- | --- | --- | --- | --- |
| Nc1nc2nc[nH]c2c(=O)[nH]1 [Guanine] |  |  |  | kcat (HGPRT-II [1]): 0.05 s⁻¹; kcat (HGXPRT [2]): 1.36 s⁻¹ |
| O=c1[nH]c(=O)c2nc[nH]c2[nH]1 [Xanthine] |  |  |  | Km (HGPRT-I [3]): No activity detected; kcat (HGPRT-I [3]): No activity detected; Km (HGPRT-I [3]; listed as xanthine): no affinity; kcat (HGPRT-I [3]; listed as xanthine): no activity; Km (HGPRT-II [1]): No activity detected; kcat (HGPRT-II [1]): No activity detected; kcat (HGPRT-II [1]; listed as xanthine): no activity |
| N#CCCN(CCn1cnc2c(=O)[nH]c(N)nc21)CCP(=O)(O)O [compound 1] | 13500 ± 830 nM | 14200 ± 610 nM | 19900 ± 1750 nM |  |
| Nc1nc2c(ncn2CCN(CCOCP(=O)(O)O)CCP(=O)(O)O)c(=O)[nH]1 [compound 2] | 110 nM | 250 ± 20 nM | 6540 nM |  |
| O=c1[nH]cnc2c1ncn2CCN(CCOCP(=O)(O)O)CCP(=O)(O)O [compound 3] | 120 nM and < 1000 nM | 60 nM and < 1000 nM | 380 nM and < 1000 nM |  |
| Nc1nc2c(ncn2CCN(CCN(CCP(=O)(O)O)CCP(=O)(O)O)CCP(=O)(O)O)c(=O)[nH]1 [compound 4] | 290 ± 20 nM | 310 ± 60 nM |  | Ki (HGXPRT [6]; HGXPRT Ki): 1860 ± 290 nM |
| O=c1[nH]cnc2c1ncn2CCN(CCN(CCP(=O)(O)O)CCP(=O)(O)O)CCP(=O)(O)O [compound 5] | 2470 ± 440 nM | 7020 ± 1620 nM | 10500 ± 1320 nM |  |
| Nc1nc2c(ncn2CC(COCP(=O)(O)O)COCP(=O)(O)O)c(=O)[nH]1 [compound 6] |  |  |  | Ki (HGPRT-I [4]; HGPRT-I Ki): < 1000 nM; Ki (HGPRT-II [5]): 200 nM and < 1000 nM; Ki (HGXPRT [6]; HGXPRT Ki): < 1000 nM |
| Nc1nc2c(ncn2CC(COCCP(=O)(O)O)OCCP(=O)(O)O)c(=O)[nH]1 (stereo not drawn) [compound 7] | 890 ± 70 nM | 1880 ± 170 nM | 770 ± 60 nM |  |
